Key:
panel of 442 kinases [1] = molecular target: T1, panel of 442 kinases (Homo sapiens, UniProt Q13554); type: binding; set-up: KINOMEscan: ABL1(F317L)-phosphorylated / KINOMEscan: ABL1(H396P)-nonphosphorylated / KINOMEscan: ABL1(H396P)-phosphorylated / KINOMEscan: ABL1(M351T)-phosphorylated / KINOMEscan: ABL1(T315I)-phosphorylated / KINOMEscan: ABL1-nonphosphorylated / KINOMEscan: ABL1-phosphorylated / KINOMEscan: ACVR2A / KINOMEscan: ACVR2B / KINOMEscan: ADCK3 / KINOMEscan: ADCK4 / KINOMEscan: AKT1 / KINOMEscan: AKT3 / KINOMEscan: ALK / KINOMEscan: ARK5 / KINOMEscan: AURKA / KINOMEscan: AURKC / KINOMEscan: BIKE / KINOMEscan: BMPR1A / KINOMEscan: BMPR1B / KINOMEscan: BMX / KINOMEscan: BRK / KINOMEscan: BRSK1 / KINOMEscan: BRSK2 / KINOMEscan: CAMK1 / KINOMEscan: CAMK1D / KINOMEscan: CAMK1G / KINOMEscan: CAMK2A / KINOMEscan: CAMK2B / KINOMEscan: AAK1 / KINOMEscan: CAMK2D / KINOMEscan: CAMK2G / KINOMEscan: ABL1(F317I)-nonphosphorylated / KINOMEscan: ABL1(F317I)-phosphorylated / KINOMEscan: ABL1(F317L)-nonphosphorylated: unit: % Ctrl; settings: Compound Concentration 10 µM
T1 construct: purchased KINOMEscan
T1 sequence (Q13554 whole entry): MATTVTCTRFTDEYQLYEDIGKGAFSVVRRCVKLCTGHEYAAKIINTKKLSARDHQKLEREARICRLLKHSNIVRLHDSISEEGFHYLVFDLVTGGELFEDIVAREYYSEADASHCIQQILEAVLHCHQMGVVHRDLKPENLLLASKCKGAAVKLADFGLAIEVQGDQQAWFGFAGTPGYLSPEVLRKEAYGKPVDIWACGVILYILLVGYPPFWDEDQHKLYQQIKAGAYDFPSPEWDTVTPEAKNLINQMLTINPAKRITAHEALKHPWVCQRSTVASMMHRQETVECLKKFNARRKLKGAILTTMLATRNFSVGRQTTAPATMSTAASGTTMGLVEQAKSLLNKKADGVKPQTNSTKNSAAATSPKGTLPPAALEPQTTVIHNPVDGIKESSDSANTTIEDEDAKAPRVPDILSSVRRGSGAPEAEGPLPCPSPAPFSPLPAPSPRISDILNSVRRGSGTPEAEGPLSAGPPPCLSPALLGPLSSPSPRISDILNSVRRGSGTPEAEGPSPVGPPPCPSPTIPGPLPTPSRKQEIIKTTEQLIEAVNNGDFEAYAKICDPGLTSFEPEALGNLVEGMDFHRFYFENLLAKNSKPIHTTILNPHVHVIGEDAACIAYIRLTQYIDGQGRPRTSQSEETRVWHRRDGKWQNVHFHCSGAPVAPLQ
From the text: (§1) We assessed the selectivity of members of this scaffold using the KINOMEscan methodology across a near comprehensive panel of 442 kinases [[18,27]].

panel of 442 kinases [2] = molecular target: T2, panel of 442 kinases (Homo sapiens, UniProt O00329); type: binding; set-up: KINOMEscan: ABL1(F317L)-phosphorylated / KINOMEscan: ABL1(H396P)-nonphosphorylated / KINOMEscan: ABL1(H396P)-phosphorylated / KINOMEscan: ABL1(M351T)-phosphorylated / KINOMEscan: ABL1(T315I)-phosphorylated / KINOMEscan: ABL1-nonphosphorylated / KINOMEscan: ABL1-phosphorylated / KINOMEscan: ACVR2A / KINOMEscan: ACVR2B / KINOMEscan: ADCK3 / KINOMEscan: ADCK4 / KINOMEscan: AKT1 / KINOMEscan: AKT3 / KINOMEscan: ALK / KINOMEscan: ARK5 / KINOMEscan: AURKA / KINOMEscan: AURKC / KINOMEscan: BIKE / KINOMEscan: BMPR1A / KINOMEscan: BMPR1B / KINOMEscan: BMX / KINOMEscan: BRK / KINOMEscan: BRSK1 / KINOMEscan: BRSK2 / KINOMEscan: CAMK1 / KINOMEscan: CAMK1D / KINOMEscan: CAMK1G / KINOMEscan: CAMK2A / KINOMEscan: CAMK2B / KINOMEscan: AAK1 / KINOMEscan: CAMK2D / KINOMEscan: CAMK2G / KINOMEscan: ABL1(F317I)-nonphosphorylated / KINOMEscan: ABL1(F317I)-phosphorylated / KINOMEscan: ABL1(F317L)-nonphosphorylated: unit: % Ctrl; settings: Compound Concentration 10 µM
T2 construct: purchased KINOMEscan
T2 sequence (O00329 1-1044): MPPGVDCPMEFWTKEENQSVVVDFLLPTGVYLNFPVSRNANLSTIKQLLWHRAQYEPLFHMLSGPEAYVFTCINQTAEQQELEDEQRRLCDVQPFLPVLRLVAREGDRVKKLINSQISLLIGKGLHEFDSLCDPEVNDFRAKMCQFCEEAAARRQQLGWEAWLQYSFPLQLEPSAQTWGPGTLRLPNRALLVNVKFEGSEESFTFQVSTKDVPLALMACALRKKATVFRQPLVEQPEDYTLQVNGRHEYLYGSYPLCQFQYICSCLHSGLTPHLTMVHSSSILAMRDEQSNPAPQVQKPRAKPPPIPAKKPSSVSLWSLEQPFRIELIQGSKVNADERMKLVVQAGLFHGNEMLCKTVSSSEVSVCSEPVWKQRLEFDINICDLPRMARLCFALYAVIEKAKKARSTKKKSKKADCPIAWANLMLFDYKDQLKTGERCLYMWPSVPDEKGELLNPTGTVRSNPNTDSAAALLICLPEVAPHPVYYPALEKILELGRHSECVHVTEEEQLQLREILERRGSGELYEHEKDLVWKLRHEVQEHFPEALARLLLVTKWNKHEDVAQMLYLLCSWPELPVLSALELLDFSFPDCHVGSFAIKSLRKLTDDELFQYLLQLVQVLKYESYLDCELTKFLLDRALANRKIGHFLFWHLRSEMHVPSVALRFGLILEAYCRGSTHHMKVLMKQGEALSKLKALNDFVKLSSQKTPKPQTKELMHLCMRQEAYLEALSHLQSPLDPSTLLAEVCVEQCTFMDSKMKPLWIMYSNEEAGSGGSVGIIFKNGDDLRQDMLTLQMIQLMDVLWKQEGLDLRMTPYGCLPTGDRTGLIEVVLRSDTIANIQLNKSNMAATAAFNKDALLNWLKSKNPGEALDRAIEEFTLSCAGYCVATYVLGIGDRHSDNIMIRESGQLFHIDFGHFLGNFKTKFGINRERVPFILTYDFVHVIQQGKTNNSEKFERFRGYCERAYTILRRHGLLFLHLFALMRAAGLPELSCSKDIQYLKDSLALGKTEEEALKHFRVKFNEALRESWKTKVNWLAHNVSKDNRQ
From the text: as §1

Row | Compound | KINOMEscan: CAMK2B (panel of 442 kinases [1]) | KINOMEscan: PIK3CD (panel of 442 kinases [2])
1 | COc1cc(C(=O)N2CCC(N3CCN(C)CC3)CC2)ccc1Nc1ncc2c(n1)N(C1CCCC1)c1ccccc1C(=O)N2C [Compound 25, 11-cyclopentyl-2-((2-methoxy-4-(4-(4-methylpiperazin-1-yl)piperidine-1-carbonyl)phenyl)amino)-5-methyl-5H-benzo[e]pyrimido[5,4-b][1,4]diazepin-6(11H)-one] | 80 | 100
2 | CCOc1cc(C(=O)N2CCC(N3CCN(C)CC3)CC2)ccc1Nc1ncc2c(n1)N(C1CCCC1)c1ccccc1C(=O)N2C [Compound 26] | 78 | 91
3 | COc1cc(C(=O)N2CCC(N3CCN(C)CC3)CC2)ccc1Nc1ncc2c(n1)N1CCc3cccc(c31)C(=O)N2C [Compound 24] | 62 | 
4 | COc1cc(C(=O)N2CCC(N3CCN(C)CC3)CC2)ccc1Nc1ncc2c(n1)N(C)c1ccccc1C(=O)N2C [15 (LRRK2-IN-1)] | 62 | 62

— publication PMC3914206
